Results as given in PubChem BioAssay AID1963831 (Molecular Pharmacology Branch, DTP, NCI, 2024).

Tested on: 889142-216-R-J1-PDC complex spheroid viability
Assay: Anticancer human tumor 889142-216-R-J1-PDC patient-derived bladder carcinoma cell line growth inhibition [POLQ]
Conditions: for IC50: curve of first compound; for viability, T/C: stronger effect = lower value; active means viability on the fitted dose curve at most 10% of control; inactive means the rest
In short: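 Three-cell-type spheroids modelling solid tumor plus stroma served as the readout system; POL inhibitors were tested individually and in combination, concentration ranges set by clinical Cmax where known.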

[1] = second compound 0.0316 µM, first compound 0.0316 µM
[2] = second compound 0.0316 µM, first compound 0.1 µM
[3] = second compound 0.0316 µM, first compound 0.316 µM
[4] = second compound 0.0316 µM, first compound 1 µM
[5] = second compound 0.0316 µM, first compound 3.16 µM
[6] = second compound 0.0316 µM, first compound 10 µM
[7] = second compound 0.1 µM, first compound 0.0316 µM
[8] = second compound 0.1 µM, first compound 0.1 µM
[9] = second compound 0.1 µM, first compound 0.316 µM
[10] = second compound 0.1 µM, first compound 1 µM
[11] = second compound 0.1 µM, first compound 3.16 µM
[12] = second compound 0.1 µM, first compound 10 µM
[13] = second compound 0.316 µM, first compound 0.0316 µM
[14] = second compound 0.316 µM, first compound 0.1 µM
[15] = second compound 0.316 µM, first compound 0.316 µM
[16] = second compound 0.316 µM, first compound 1 µM
[17] = second compound 0.316 µM, first compound 3.16 µM
[18] = second compound 0.316 µM, first compound 10 µM
[19] = second compound 1 µM, first compound 0.0316 µM
[20] = second compound 1 µM, first compound 0.1 µM
[21] = second compound 1 µM, first compound 0.316 µM
[22] = second compound 1 µM, first compound 1 µM
[23] = second compound 1 µM, first compound 3.16 µM
[24] = second compound 1 µM, first compound 10 µM
[25] = second compound 3.16 µM, first compound 0.0316 µM
[26] = second compound 3.16 µM, first compound 0.1 µM
[27] = second compound 3.16 µM, first compound 0.316 µM
[28] = second compound 3.16 µM, first compound 1 µM
[29] = second compound 3.16 µM, first compound 3.16 µM
[30] = second compound 3.16 µM, first compound 10 µM
[31] = second compound 10 µM, first compound 0.0316 µM
[32] = second compound 10 µM, first compound 0.1 µM
[33] = second compound 10 µM, first compound 0.316 µM
[34] = second compound 10 µM, first compound 1 µM
[35] = second compound 10 µM, first compound 3.16 µM
[36] = second compound 10 µM, first compound 10 µM
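Further: spheroids exposed to compounds for seven days.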
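Wherever viability, T/C is given: 100% = DMSO vehicle control viability.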

COc1cc(C2c3cc4c(cc3C(OC3OC5COC(C)OC5C(O)C3O)C3COC(=O)C23)OCO4)cc(OC)c1O (stereo not drawn) + Nc1ccc(C#CCN(C(=O)Cc2ncc(C(F)(F)F)cc2C(F)(F)F)c2ccc(F)cc2)nn1
8.97 µM: IC50 (second compound 1 µM)
inactive: viability, T/C [1] 90.8% | viability, T/C [2] 92.8% | viability, T/C [3] 86.8% | viability, T/C [4] 60.5% | viability, T/C [5] 96.8% | viability, T/C [6] 62.9% | viability, T/C [7] 99.5% | viability, T/C [8] 101% | viability, T/C [9] 69.3% | viability, T/C [10] 60.2% | viability, T/C [11] 84.5% | viability, T/C [12] 61.5% | viability, T/C [13] 116% | viability, T/C [14] 86.2% | viability, T/C [15] 78.8% | viability, T/C [16] 69% | viability, T/C [17] 79.2% | viability, T/C [18] 54.4% | viability, T/C [19] 121% | viability, T/C [20] 95.6% | viability, T/C [21] 80.5% | viability, T/C [22] 58.2% | viability, T/C [23] 66% | viability, T/C [24] 56.9% | viability, T/C [25] 104% | viability, T/C [26] 78.2% | viability, T/C [27] 72.2% | viability, T/C [28] 59.8% | viability, T/C [29] 68.1% | viability, T/C [30] 61% | viability, T/C [31] 86.7% | viability, T/C [32] 104% | viability, T/C [33] 79.9% | viability, T/C [34] 74.3% | viability, T/C [35] 76.4% | viability, T/C [36] 62.9%
> 10 µM: IC50 (second compound 0.0316 µM) | IC50 (second compound 0.1 µM) | IC50 (second compound 0.316 µM) | IC50 (second compound 3.16 µM) | IC50 (second compound 10 µM)

COc1cccc2c1C(=O)c1c(O)c3c(c(O)c1C2=O)CC(O)(C(=O)CO)CC3OC1CC(N)C(O)C(C)O1 (stereo not drawn) + Nc1ccc(C#CCN(C(=O)Cc2ncc(C(F)(F)F)cc2C(F)(F)F)c2ccc(F)cc2)nn1
0.254 µM: IC50 (second compound 0.316 µM)
0.318 µM: IC50 (second compound 10 µM)
0.338 µM: IC50 (second compound 0.0316 µM)
0.339 µM: IC50 (second compound 0.1 µM)
inactive: viability, T/C [1] 55.1% | viability, T/C [2] 78.9% | viability, T/C [3] 52.2% | viability, T/C [7] 71.8% | viability, T/C [8] 79.8% | viability, T/C [9] 52% | viability, T/C [13] 66.6% | viability, T/C [14] 76.2% | viability, T/C [15] 44.1% | viability, T/C [19] 77.8% | viability, T/C [20] 75.3% | viability, T/C [21] 68.6% | viability, T/C [25] 66% | viability, T/C [26] 77.7% | viability, T/C [27] 47.9% | viability, T/C [31] 71.5% | viability, T/C [32] 72.3% | viability, T/C [33] 50.2%
0.45 µM: IC50 (second compound 1 µM)
0.287 µM: IC50 (second compound 3.16 µM)
active: viability, T/C [4] 6.13% | viability, T/C [5] 0.74% | viability, T/C [6] 1.95% | viability, T/C [10] 9.08% | viability, T/C [11] 1.08% | viability, T/C [12] 1.72% | viability, T/C [16] 8.99% | viability, T/C [17] 1.03% | viability, T/C [18] 1.55% | viability, T/C [22] 7.94% | viability, T/C [23] 1.14% | viability, T/C [24] 2.34% | viability, T/C [28] 4.28% | viability, T/C [29] 0.84% | viability, T/C [30] 1.58% | viability, T/C [34] 3.75% | viability, T/C [35] 1.07% | viability, T/C [36] 1.08%

CCc1cc2c(N3CCc4c(cc(Cn5ccnc5)cc4-c4cn(C)nc4C(F)(F)F)C3=O)cc(C)nc2c(OC)n1 + COC1C(OC(N)=O)C(O)C(Oc2ccc3c(O)c(NC(=O)c4ccc(O)c(CC=C(C)C)c4)c(=O)oc3c2C)OC1(C)C
> 10 µM: IC50 (second compound 0.0316 µM) | IC50 (second compound 0.1 µM) | IC50 (second compound 0.316 µM) | IC50 (second compound 1 µM) | IC50 (second compound 3.16 µM) | IC50 (second compound 10 µM)
inactive: viability, T/C [1] 112% | viability, T/C [2] 124% | viability, T/C [3] 113% | viability, T/C [4] 97% | viability, T/C [5] 79.9% | viability, T/C [6] 68.6% | viability, T/C [7] 130% | viability, T/C [8] 115% | viability, T/C [9] 101% | viability, T/C [10] 101% | viability, T/C [11] 85.7% | viability, T/C [12] 58.2% | viability, T/C [13] 120% | viability, T/C [14] 132% | viability, T/C [15] 107% | viability, T/C [16] 107% | viability, T/C [17] 92.9% | viability, T/C [18] 67.7% | viability, T/C [19] 126% | viability, T/C [20] 123% | viability, T/C [21] 131% | viability, T/C [22] 105% | viability, T/C [23] 74.4% | viability, T/C [24] 61.9% | viability, T/C [25] 112% | viability, T/C [26] 106% | viability, T/C [27] 137% | viability, T/C [28] 98.4% | viability, T/C [29] 81.9% | viability, T/C [30] 55.1% | viability, T/C [31] 119% | viability, T/C [32] 102% | viability, T/C [33] 111% | viability, T/C [34] 92.2% | viability, T/C [35] 85.8% | viability, T/C [36] 62.8%

O=C(Nc1ccc(O)c(NS(=O)(=O)c2ccc(F)cc2)c1)c1ccc(-c2ccccc2)cc1 + Cc1cccc(N(C)C(=O)C2C(O)CCN2c2nc(C)cc(C(F)(F)F)c2C#N)c1
inactive: viability, T/C [1] 103% | viability, T/C [2] 106% | viability, T/C [3] 112% | viability, T/C [4] 134% | viability, T/C [5] 101% | viability, T/C [6] 85.1% | viability, T/C [7] 94.9% | viability, T/C [8] 121% | viability, T/C [9] 98.1% | viability, T/C [10] 127% | viability, T/C [11] 126% | viability, T/C [12] 86.4% | viability, T/C [13] 140% | viability, T/C [14] 93.2% | viability, T/C [15] 85.9% | viability, T/C [16] 120% | viability, T/C [17] 112% | viability, T/C [18] 80.2% | viability, T/C [19] 96.2% | viability, T/C [20] 96.7% | viability, T/C [21] 84% | viability, T/C [22] 97.5% | viability, T/C [23] 131% | viability, T/C [24] 70.4% | viability, T/C [25] 87.8% | viability, T/C [26] 123% | viability, T/C [27] 121% | viability, T/C [28] 107% | viability, T/C [29] 91.2% | viability, T/C [30] 77.6% | viability, T/C [31] 69.3% | viability, T/C [32] 98.9% | viability, T/C [33] 97% | viability, T/C [34] 89.6% | viability, T/C [35] 85.3% | viability, T/C [36] 69.4%
> 10 µM: IC50 (second compound 0.0316 µM) | IC50 (second compound 0.1 µM) | IC50 (second compound 0.316 µM) | IC50 (second compound 1 µM) | IC50 (second compound 3.16 µM) | IC50 (second compound 10 µM)
